{
  "source": "patent US20100247435A1",
  "about": "“MEASUREMENT OF NEURAL ACTIVITY” (priority 2007, published 2010)",
  "assay": "Biodistribution of 3H compound in rat",
  "type": "in vivo, Rats (Wistar)",
  "conditions": "Wistar rat, 2, 5, 20 and 40 min p.i.",
  "description": "A tritiated version of 3-[2,4-Difluoro-phenoxy]-phenyl-pyrazole-1-carboxylic acid amide (“Hammersmith compound” in FIG. 1) was custom prepared by GE Healthcare, Cardiff.\nRats (Wistar, ca. 150 g; Charles River UK Ltd) were injected with 0.37 MBq of [^3H]-3-[2,4-Difluoro-phenoxy]-phenyl-pyrazole-1-carboxylic acid amide, as an intravenous bolus via the tail vein. Rats were killed by cervical dislocation at 2, 5, 20 and 40 min post injection (p.i.). Brain (separated as cortex and hippocampus), blood, and major organs were collected, weighed and burned using a Packard Tissue Oxidizer model 307 (Packard Instrument Co., Meriden, Conn.). Samples were then counted in a β-counter (Rack Beta, Perkin Elmer LAS (UK) Ltd).",
  "data": [
    {"smiles": "NC(=O)n1ccc(-c2ccc(Oc3ccc(F)cc3F)cc2)n1", "note": "[[^3H]-3-[2,4-Difluoro-phenoxy]-phenyl-pyrazole-1-carboxylic acid amide]", "values": [
      {"measurement": "time activity curves", "setting": "0.37 MBq i.v., FIG. 1", "result": "consistent with reversible binding"},
      {"measurement": "brain uptake of the compound", "setting": "0.37 MBq intravenous bolus via tail vein, % id/g shown in FIG. 1", "result": "good"}
    ]}
  ]
}
